Experimental data taken from ChEMBL document CHEMBL1201862, “PubChem BioAssay data set” (2004).
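Five compound concentrations were applied to cells in 96-well plates for 48 hours; endpoints were derived by simple linear interpolation of the resulting dose-response curve. At the GI50, growth is halved.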 Active and inactive are the calls of the source. Cut-off read from the data, not from the text of the source: active = GI50 up to about 1.1 µM and inactive = higher.

Assays:
Experiment in all cases: NCI-60 cell line screen, 48 h
DU-145 = test system: DU-145
IGROV-1 = test system: IGROV-1
PC-3 = test system: PC-3
NCI/ADR-RES = test system: NCI/ADR-RES
SK-OV-3 = test system: SK-OV-3
SF-539 = test system: SF-539
SK-MEL-28 = test system: SK-MEL-28
SK-MEL-5 = test system: SK-MEL-5
NCI-H460 = test system: NCI-H460
KM12 = test system: KM12
UACC-62 = test system: UACC-62
CAKI-1 = test system: CAKI-1
OVCAR-4 = test system: OVCAR-4
HOP-62 = test system: HOP-62
SF-268 = test system: SF-268
M14 = test system: M14
K562 = test system: K562
EKVX = test system: EKVX
OVCAR-5 = test system: OVCAR-5
Hs-578T = test system: Hs-578T

SMILES | GI50 (DU-145) | GI50 (IGROV-1) | GI50 (PC-3) | GI50 (NCI/ADR-RES) | GI50 (SK-OV-3) | GI50 (SF-539) | GI50 (SK-MEL-28) | GI50 (SK-MEL-5) | GI50 (NCI-H460) | GI50 (KM12) | GI50 (UACC-62) | GI50 (CAKI-1) | GI50 (OVCAR-4) | GI50 (HOP-62) | GI50 (SF-268) | GI50 (M14) | GI50 (K562) | GI50 (EKVX) | GI50 (OVCAR-5) | GI50 (Hs-578T)
O=c1[nH]c(=O)n(C2CC(O)C(COP(=O)(O)OC3CC(n4cc(F)c(=O)[nH]c4=O)OC3COP(=O)(O)OC3CC(n4cc(F)c(=O)[nH]c4=O)OC3COP(=O)(O)OC3CC(n4cc(F)c(=O)[nH]c4=O)OC3COP(=O)(O)OC3CC(n4cc(F)c(=O)[nH]c4=O)OC3COP(=O)(O)OC3CC(n4cc(F)c(=O)[nH]c4=O)OC3COP(=O)(O)OC3CC(n4cc(F)c(=O)[nH]c4=O)OC3COP(=O)(O)OC3CC(n4cc(F)c(=O)[nH]c4=O)OC3COP(=O)(O)OC3CC(n4cc(F)c(=O)[nH]c4=O)OC3COP(=O)(O)OC3CC(n4cc(F)c(=O)[nH]c4=O)OC3CO)O2)cc1F (stereo not drawn) | < 0.005 µM (active) | 0.0435 µM (active) | 0.0767 µM (active) | < 0.005 µM (active) | 0.226 µM (active) | < 0.005 µM (active) | 0.286 µM (active) | 0.00824 µM (active) | < 0.005 µM (active) | 3.59 µM (inactive) | < 0.005 µM (active) | < 0.005 µM (active) | 0.661 µM (active) | < 0.005 µM (active) | < 0.005 µM (active) | < 0.005 µM (active) | 2.36 µM (inactive) | – | – | –
Clc1ccc(COC(Cn2ccnc2)c2ccc(Cl)cc2Cl)c(Cl)c1 (stereo not drawn) [MICONAZOLE NITRATE] | 13 µM (inactive) | – | 5.7 µM (inactive) | 4 µM (inactive) | 14.3 µM (inactive) | 14.6 µM (inactive) | 12.7 µM (inactive) | – | 12.6 µM (inactive) | 13.3 µM (inactive) | 10.2 µM (inactive) | 10.5 µM (inactive) | 11.9 µM (inactive) | 13.2 µM (inactive) | 10.3 µM (inactive) | 10.6 µM (inactive) | 3.75 µM (inactive) | 10.5 µM (inactive) | 12.9 µM (inactive) | –
O=C(NCP(=O)(Oc1ccccc1)Oc1ccccc1)OCc1ccccc1 | – | > 100 µM (inactive) | 43.9 µM (inactive) | > 100 µM (inactive) | 33.1 µM (inactive) | – | > 100 µM (inactive) | > 100 µM (inactive) | > 100 µM (inactive) | > 100 µM (inactive) | 62.8 µM (inactive) | > 100 µM (inactive) | 45.3 µM (inactive) | 39.8 µM (inactive) | > 100 µM (inactive) | > 100 µM (inactive) | > 100 µM (inactive) | > 100 µM (inactive) | > 100 µM (inactive) | 40.7 µM (inactive)
Cc1ccc(C2=NO[C@@H]3C(=O)N(c4ccc(Cc5ccc(N6C(=O)[C@H]7C(c8ccc(C)cc8)=NO[C@H]7C6=O)cc5)cc4)C(=O)[C@H]23)cc1 | – | > 100 µM (inactive) | – | – | > 100 µM (inactive) | > 100 µM (inactive) | > 100 µM (inactive) | > 100 µM (inactive) | > 100 µM (inactive) | > 100 µM (inactive) | > 100 µM (inactive) | > 100 µM (inactive) | > 100 µM (inactive) | > 100 µM (inactive) | > 100 µM (inactive) | > 100 µM (inactive) | > 100 µM (inactive) | > 100 µM (inactive) | > 100 µM (inactive) | –
C1OC1CN1CCN(CC2CO2)CC1 (stereo not drawn) | – | > 100 µM (inactive) | – | – | > 96.8 µM (inactive) | 37.4 µM (inactive) | > 100 µM (inactive) | > 100 µM (inactive) | 6.53 µM (inactive) | > 100 µM (inactive) | 8.87 µM (inactive) | 26.7 µM (inactive) | > 100 µM (inactive) | 24.2 µM (inactive) | 22.8 µM (inactive) | 54.6 µM (inactive) | 52.5 µM (inactive) | > 100 µM (inactive) | > 100 µM (inactive) | –
Cc1ccccc1Cn1nc2ccccc2cc1=O | – | > 100 µM (inactive) | – | – | > 100 µM (inactive) | > 100 µM (inactive) | > 100 µM (inactive) | > 100 µM (inactive) | > 100 µM (inactive) | > 100 µM (inactive) | > 100 µM (inactive) | > 100 µM (inactive) | > 100 µM (inactive) | > 100 µM (inactive) | > 100 µM (inactive) | > 100 µM (inactive) | > 100 µM (inactive) | > 100 µM (inactive) | > 100 µM (inactive) | –
CC(C)C(=O)N[C@@H](C)C(=O)N(Cc1ccc2ccccc2c1)N=O | – | 95.9 µM (inactive) | – | – | > 100 µM (inactive) | > 100 µM (inactive) | > 100 µM (inactive) | > 100 µM (inactive) | 82 µM (inactive) | > 10 µM (inactive) | 48 µM (inactive) | 40.5 µM (inactive) | 54.7 µM (inactive) | > 100 µM (inactive) | > 100 µM (inactive) | 84.1 µM (inactive) | 36.1 µM (inactive) | > 100 µM (inactive) | 48.8 µM (inactive) | –
CCOC(=O)C1N(S(=O)(=O)c2ccc(C)cc2)CCC12c1ccccc1NC2c1ccc(OC)c(OC)c1 (stereo not drawn) | – | 14.6 µM (inactive) | – | – | > 100 µM (inactive) | > 100 µM (inactive) | > 100 µM (inactive) | > 100 µM (inactive) | > 100 µM (inactive) | > 100 µM (inactive) | > 100 µM (inactive) | > 100 µM (inactive) | > 100 µM (inactive) | > 100 µM (inactive) | > 100 µM (inactive) | > 100 µM (inactive) | 34.2 µM (inactive) | > 100 µM (inactive) | > 100 µM (inactive) | –
O=C(CCC(=O)Nc1ccc(Cl)cc1)CC(=O)c1ccc2ccccc2c1 | – | > 100 µM (inactive) | – | – | > 100 µM (inactive) | > 100 µM (inactive) | > 100 µM (inactive) | > 100 µM (inactive) | > 100 µM (inactive) | > 100 µM (inactive) | 32.7 µM (inactive) | > 100 µM (inactive) | > 100 µM (inactive) | > 100 µM (inactive) | > 100 µM (inactive) | > 100 µM (inactive) | > 100 µM (inactive) | > 100 µM (inactive) | > 100 µM (inactive) | –
COc1cc2[nH]c(=O)c3cc(C)cc4c(Cl)nc(c1OC)c2c43 | 61.8 µM (inactive) | 67.8 µM (inactive) | > 100 µM (inactive) | > 100 µM (inactive) | 37.9 µM (inactive) | 29.9 µM (inactive) | > 100 µM (inactive) | 55.6 µM (inactive) | 23.4 µM (inactive) | 96.6 µM (inactive) | 28.3 µM (inactive) | 56.2 µM (inactive) | > 100 µM (inactive) | 23.6 µM (inactive) | 20.4 µM (inactive) | > 100 µM (inactive) | 67.8 µM (inactive) | 18.1 µM (inactive) | > 100 µM (inactive) | –
O=C1NC2=C(CCCCC/C2=N\O)C12CCCCCC2 | – | > 100 µM (inactive) | – | – | > 100 µM (inactive) | > 100 µM (inactive) | > 100 µM (inactive) | > 100 µM (inactive) | > 100 µM (inactive) | > 100 µM (inactive) | > 100 µM (inactive) | > 100 µM (inactive) | > 100 µM (inactive) | > 100 µM (inactive) | > 100 µM (inactive) | > 100 µM (inactive) | > 100 µM (inactive) | > 100 µM (inactive) | > 100 µM (inactive) | –
COC(=O)c1nn(-c2ccccc2)c(=O)cc1N=[N+]=[N-] | – | > 100 µM (inactive) | – | – | > 100 µM (inactive) | > 100 µM (inactive) | > 100 µM (inactive) | > 100 µM (inactive) | > 100 µM (inactive) | > 100 µM (inactive) | > 100 µM (inactive) | > 100 µM (inactive) | > 100 µM (inactive) | > 100 µM (inactive) | > 100 µM (inactive) | > 100 µM (inactive) | > 100 µM (inactive) | > 100 µM (inactive) | > 100 µM (inactive) | –
CCOC(=O)N(c1ccccc1)c1cc(=O)n2ccccc2n1 | > 100 µM (inactive) | > 100 µM (inactive) | – | > 100 µM (inactive) | > 100 µM (inactive) | > 100 µM (inactive) | > 100 µM (inactive) | > 100 µM (inactive) | > 100 µM (inactive) | > 100 µM (inactive) | > 100 µM (inactive) | > 100 µM (inactive) | > 100 µM (inactive) | > 100 µM (inactive) | > 100 µM (inactive) | – | > 100 µM (inactive) | > 100 µM (inactive) | > 100 µM (inactive) | –
COC(=O)C1=C(O)C(C(=O)OC)[C@]2(O)[C@H](C(=O)OC)[C@H]1C[C@@H](c1ccc([N+](=O)[O-])cc1)[C@H]2C(=O)OC (stereo partly drawn) | 34.7 µM (inactive) | 12.8 µM (inactive) | 13.9 µM (inactive) | 16.4 µM (inactive) | 27.8 µM (inactive) | 30.5 µM (inactive) | 16.2 µM (inactive) | 15.3 µM (inactive) | 26.4 µM (inactive) | 28 µM (inactive) | 12.4 µM (inactive) | 28.6 µM (inactive) | 34.8 µM (inactive) | 34.6 µM (inactive) | 16.9 µM (inactive) | 15.7 µM (inactive) | 10.2 µM (inactive) | 21.5 µM (inactive) | 25.2 µM (inactive) | –
C1CSCCSCCCSC2CCCCC2SC1 (stereo not drawn) | > 100 µM (inactive) | > 100 µM (inactive) | 68.2 µM (inactive) | 83.9 µM (inactive) | > 100 µM (inactive) | > 100 µM (inactive) | > 100 µM (inactive) | 43.2 µM (inactive) | > 100 µM (inactive) | > 100 µM (inactive) | > 100 µM (inactive) | – | > 100 µM (inactive) | > 100 µM (inactive) | > 100 µM (inactive) | > 100 µM (inactive) | 45 µM (inactive) | > 100 µM (inactive) | > 100 µM (inactive) | –
